# According to patent US9700043B2, “Corrosive ingredient(s)-containing compositions having reduced toxicity and method of obtaining” (S. C. Johnson & Son, Inc., priority 2014, dated 2017):
# Test system: bovine cornea
# Assay: Bovine cornea opacity and permeability (BCOP) ocular irritation assay
# Conditions: mean data, Conc. neat, exposure time 10 minutes
# Protocol: Products including one or more ingredients which are corrosive in nature and present in a product at a level which normally cause ocular irritation are modified to have reduced ocular irritation without replacing the corrosive ingredient(s) and without reducing the amount of the corrosive ingredient(s) used in a product. The level of corrosiveness or the hazards of a product is determined under EPA regulations. EPA toxicity testing is based on determining the level of ocular irritation caused by a product. This EPA standard is used herein to evidence the reduced corrosive nature of products of the invention. The test used is the bovine cornea opacity and permeability (BCOP) method which is an Organization for Economic Co-operation and Development (OECD) validated method for assessing ocular irritation and has recently been accepted by the EPA as an alternative to the traditional Draize animal test. The BCOP test method is described in the “OECD Guidelines For The Testing Of Chemicals”, No. 437, adopted Jul. 26, 2013 and entitled “Bovine Corneal Opacity and Permeability Test Method for Identifying i) Chemicals Inducing Serious Eye Damage and ii) Chemicals Not Requiring Classification for Eye Irritation or Serious Eye Damage”. […]
# Step 3—Initial Opacity. The cMEM is removed and refilled and the initial opacity is read on an opacitometer. […]
# Step 5—Rinsing. Corneas are rinsed thoroughly to remove the test substance and incubated for two (2) hours before a final opacity reading. […]
# Formulas of the same ingredients as in Example 4 were also tested with lower or higher amounts of CARBOPOL® EZ-2 with respective adjustments in the water concentration. […] The viscosities of the 0.25% solution was ˜4 cps, of the 0.55% solution ˜10 cps, of the 0.75% solution ˜200 cps, of the 1.0% solution (shown above) ˜8,000 cps, (each of the former being measured by Brookfield LVT, spindle 1, speed 30 rpm) and of the 1.25% solution ˜18,700 cps (being measured by Brookfield LVT, spindle 4, speed 30 rpm). […]
smiles,measurement,setting,value
"CCO [Ethanol (Control), Ethanol]",OD490 Value,fluorescein permeability,0.899
same,Opacity Value,n=3 corneas per sample,28.7
same,In Vitro Score,EPA: score ≧75 = Category I,42.2
